Reference: US20170313674A1, “BENZYLHYDROXIDE DERIVATIVES, PREPARATION THEREOF AND THERAPEUTIC USE THEREOF” (SANOFI, priority 2014, published 2017)
Read-outs that look alike come from different tables or passages of the source.

Assays:
[1] = tested on: mitochondrial ATP production on non-small cell lung carcinoma cell lines NCI-H460; test: Mitochondrial ATP analysis (Cell Titer Glo) in NCI-H460 cells; assay type: cell-based; settings: 1-hour incubation, with sodium iodoacetate (100 μM), concentration inhibiting 50% of mitochondrial ATP production, read-out: IC50 (mito ATP)
Description: In order to evaluate the inhibitory activity of the all compounds, an in vitro assay was developed which read out is directly linked to mitochondrial complex 1 inhibition. Since mitochondrial complex 1 contributes to the formation of membrane potential coupled to the mitochondrial ATP synthesis, complex 1 inhibition directly leads in cells to the inhibition of mitochondrial ATP production. Cellular ATP contents were measured in presence of either glycolysis inhibitor (sodium iodocetate) and/or mitochondrial inhibitors (F0F1-ATPase inhibitor: oligomycin or mitochondrial uncoupler: FCCP) to determine the ATP production part relying either on glycolytic or on mitochondrial metabolism.
Mitochondrial ATP Analysis
The compounds of the invention were evaluated for their ability to inhibit mitochondrial
ATP was measured using the Promega Cell Titer Glo kit and protocol. In summary, 1,000 cells were plated in 40 μL in a 384 well plate. 24 hours later, medium was replaced by 20 μl culture medium in presence of compounds: cells were treated in replicates of five with control (PBS), oligomycin A (10 μg/ml), FCCP (30 μM), or the compounds of the invention in dose effect both alone or in combination with sodium iodoacetate (100 μM). Following a 1-hour incubation, 20 μL of CellTtiter-glo™ reaction mix were added to each well for a final volume of 40 μL. Plates were then analyzed for luminescence with a Perkin Elmer EnVision. By comparing the different conditions, global ATP and percentages of both glycolytic and mitochondrial ATP were determined.
The mitochondrial ATP production was calculated as the remaining ATP under iodoacetate treatment minus basal ATP (ATP content under iodoacetate and oligomycin treatment). Inhibitory activity of the compounds on mitochondrial ATP in NCI-H460 cells is expressed as the concentration needed to inhibit 50% of mitochondrial ATP production (IC50, M).

[2] = tested on: HIF-1a; test: Western blot model: HIF1-a stabilization in Hep3b cells under hypoxia; assay type: cell-based; settings: hypoxia 1% O2, 6 hours; for Western Blot (range of decrease of HIF1-a stabilization): class symbol
Description: Since it was sought to determine the efficacy of the compounds to inhibit HIF1a stabilization under hypoxia, the compounds according to the invention underwent biochemical studies in order to determine their capacity to decrease HIF stabilization in Hep3b cells under hypoxia (western blot model).
Hep3B cells are seeded at a rate of 300000 cells per well in 6-wells culture plate in 2 ml of MEM supplemented with glutamin (2 mM) and 10% FCS (foetal calf serum) and incubated at 37° C. in the presence of 5% CO2. The next day, the cells are placed in contact with the compound and an incubation under hypoxia at 1% O2 is carried out at 37° C. in 95% humidity and 5% CO2 in a sealed anaerobic workstation (Hypoxystation H35-Don Whitley—AES Chemunex) during 6 hours.
Cells were washed (PBS) and lysed in SDS sample buffer. Proteins (25 μg) were separated on 4-12% Bis-Tris gels and transferred onto polyvinylidene difluoride membranes (Millipore). Membranes were blotted with a mouse monoclonal antibody to HIF-1a (BD transduction) and a mouse monoclonal anti-βactin (Sigma). Immunoreactive bands were detected with a horse radish peroxydase (HRP) anti-mouse antibody (Sigma) by enhanced chemiluminescence (Promega).
The inhibitory activity of the compounds for their capacity to decrease HIF1-a stabilization in Hep3b under hypoxia is expressed as range of percentage relative to control with: […]

Question: What does the source list for `COc1ccc(C(O)C(C)(C)Oc2ccc(-c3nc(-c4ccc(OC(C)(C)C(O)c5ccc(OC)c(OC)c5)cc4)c(C)o3)cc2)cc1OC` (single isomer, unassigned) [Compound I-4, 1-(3,4-dimethoxyphenyl)-2-[4-[2-[4-[2-(3,4-dimethoxyphenyl)-2-hydroxy-1,1-dimethyl-ethoxy]phenyl]-5-methyl-oxazol-4-yl]phenoxy]-2-methyl-propan-1-ol]?
Answer: IC50 [1]: 12 nM; Western Blot (decrease of HIF1-a stabilization, percentage relative to control) [2]: 72%; Western Blot (range of decrease of HIF1-a stabilization) [2]: *** (*** represents a decrease of HIF-a stabilization higher than 70%)

Question: With `COc1ccc(C(O)COc2ccc(-c3csc(-c4ccc(OCC(O)c5ccc(OC)c(OC)c5)cc4)n3)cc2)cc1OC` (single isomer, unassigned) [Compound I-62, 1-(3,4-dimethoxyphenyl)-2-[4-[2-[4-[2-(3,4-dimethoxyphenyl)-2-hydroxy-ethoxy]phenyl]thiazol-4-yl]phenoxy]ethanol] as the compound, how does the IC50 [1] read?
Answer: 492 nM

Question: And the “Western Blot (decrease of HIF1-a stabilization, percentage relative to control)” value [2]?
Answer: 43%

Question: What about the “Western Blot (range of decrease of HIF1-a stabilization)” value [2] of the same compound?
Answer: * (* represents a decrease of HIF-a stabilization between 30 to 50%)

Question: What does the source list for `COc1ccc(C(O)COc2ccc(-c3nc(-c4ccc(OC(C)(C)C(O)c5ccc(OC)c(OC)c5)cc4)cs3)cc2)cc1OC` (centres unmarked) [Compound I-64, 1-(3,4-dimethoxyphenyl)-2-[4-[2-[4-[2-(3,4-dimethoxyphenyl)-2-hydroxy-ethoxy]phenyl]thiazol-4-yl]phenoxy]-2-methyl-propan-1-ol]?
Answer: IC50 ([1]; Homo sapiens, NCI-H460, 1 h): 180 nM; Western Blot (decrease of HIF1-a stabilization, percentage relative to control) [2]: 58%; Western Blot (range of decrease of HIF1-a stabilization) [2]: ** (** represents a decrease of HIF-a stabilization between 50 to 70%)

Question: What does the source list for `COc1ccc(C(O)C(C)(C)Oc2ccc(-c3csc(-c4ccc(OC(C)(C)C(O)c5ccc(OC)c(OC)c5)cc4)c3)cc2)cc1OC` (centres unmarked) [Compound I-34, 1-(3,4-dimethoxyphenyl)-2-[4-[5-[4-[2-(3,4-dimethoxyphenyl)-2-hydroxy-1,1-dimethyl-ethoxy]phenyl]-3-thienyl]phenoxy]-2-methyl-propan-1-ol]?
Answer: IC50 ([1]; Homo sapiens, NCI-H460, 1 h): 6 nM; Western Blot (decrease of HIF1-a stabilization, percentage relative to control) [2]: 64%; Western Blot (range of decrease of HIF1-a stabilization) [2]: ** (** represents a decrease of HIF-a stabilization between 50 to 70%)

Question: What does the source list for `COc1ccc(C(O)COc2ccc(-c3noc(-c4ccc(OCC(O)c5ccc(OC)c(OC)c5)cc4)n3)cc2)cc1OC` (single isomer, unassigned) [Compound I-47, 1-(3,4-dimethoxyphenyl)-2-[4-[5-[4-[2-(3,4-dimethoxyphenyl)-2-hydroxy-ethoxy]phenyl]-1,2,4-oxadiazol-3-yl]phenoxy]ethanol]?
Answer: IC50 ([1]; Homo sapiens, NCI-H460, 1 h): > 10000 nM; Western Blot (decrease of HIF1-a stabilization, percentage relative to control) [2]: 51%; Western Blot (range of decrease of HIF1-a stabilization) [2]: ** (** represents a decrease of HIF-a stabilization between 50 to 70%)

Question: How did the IC50 [1] turn out when `COc1ccc(C(O)C(C)Oc2ccc(-c3csc(-c4ccc(OC(C)C(O)c5ccc(OC)c(OC)c5)cc4)n3)cc2)cc1OC` (single isomer, unassigned) [Compound I-30, 1-(3,4-dimethoxyphenyl)-2-[4-[2-[4-[2-(3,4-dimethoxyphenyl)-2-hydroxy-1-methyl-ethoxy]phenyl]thiazol-4-yl]phenoxy]propan-1-ol] was run?
Answer: 167 nM

Question: And the “Western Blot (decrease of HIF1-a stabilization, percentage relative to control)” value [2]?
Answer: 56%

Question: And the “Western Blot (range of decrease of HIF1-a stabilization)” value [2]?
Answer: ** (** represents a decrease of HIF-a stabilization between 50 to 70%)

Question: Which IC50 [1] does the source give for `COc1cc(C(O)COc2ccc(-c3coc(-c4ccc(OCC(O)c5cc(OC)c(OC)c(OC)c5)cc4)n3)cc2)cc(OC)c1OC` (single isomer, unassigned) [Compound I-22, 2-[4-[2-[4-[2-hydroxy-2-(3,4,5-trimethoxyphenyl)ethoxy]phenyl]oxazol-4-yl]phenoxy]-1-(3,4,5-trimethoxyphenyl)ethanol] here?
Answer: 1280 nM

Question: And the “Western Blot (decrease of HIF1-a stabilization, percentage relative to control)” value [2]?
Answer: 57%

Question: What about the “Western Blot (range of decrease of HIF1-a stabilization)” value [2] of the same compound?
Answer: ** (** represents a decrease of HIF-a stabilization between 50 to 70%)

Question: What does the source list for `COc1ccc(C(O)COc2ccc(-c3csc(-c4ccc(OCC(O)c5ccc(OC)c(OC)c5)cc4)n3)cc2)cc1OC` (single isomer, unassigned) [Compound I-25, 1-(3,4-dimethoxyphenyl)-2-[4-[2-[4-[2-(3,4-dimethoxyphenyl)-2-hydroxy-ethoxy]phenyl]thiazol-4-yl]phenoxy]ethanol]?
Answer: IC50 [1]: 195 nM; Western Blot (decrease of HIF1-a stabilization, percentage relative to control) [2]: 41%; Western Blot (range of decrease of HIF1-a stabilization) [2]: * (* represents a decrease of HIF-a stabilization between 30 to 50%)

Question: `COc1ccc(C(O)C(C)Oc2ccc(-c3coc(-c4ccc(OC(C)C(O)c5ccc(OC)c(OC)c5)cc4)n3)cc2)cc1OC` (centres unmarked) [Compound I-12, 1-(3,4-dimethoxyphenyl)-2-[4-[2-[4-[2-(3,4-dimethoxyphenyl)-2-hydroxy-1-methyl-ethoxy]phenyl]oxazol-4-yl]phenoxy]propan-1-ol] was tested. Which IC50 ([1]; Homo sapiens, NCI-H460, 1 h) did it give?
Answer: 128 nM

Question: And the “Western Blot (decrease of HIF1-a stabilization, percentage relative to control)” value [2]?
Answer: 38%

Question: And the “Western Blot (range of decrease of HIF1-a stabilization)” value [2]?
Answer: * (* represents a decrease of HIF-a stabilization between 30 to 50%)

Question: With `COc1ccc(C(O)C(C)(C)Oc2ccc(-c3noc(-c4ccc(OC(C)(C)C(O)c5ccc(OC)c(OC)c5)cc4)n3)cc2)cc1OC` (single isomer, unassigned) [Compound I-37, 1-(3,4-dimethoxyphenyl)-2-[4-[5-[4-[2-(3,4-dimethoxyphenyl)-2-hydroxy-1,1-dimethyl-ethoxy]phenyl]-1,2,4-oxadiazol-3-yl]phenoxy]-2-methyl-propan-1-ol] as the compound, how does the IC50 ([1]; Homo sapiens, NCI-H460, 1 h) read?
Answer: 94.3 nM

Question: What about the “Western Blot (decrease of HIF1-a stabilization, percentage relative to control)” value [2] of the same compound?
Answer: 74%

Question: And the “Western Blot (range of decrease of HIF1-a stabilization)” value [2]?
Answer: *** (*** represents a decrease of HIF-a stabilization higher than 70%)

Question: `COc1ccc(C(O)C(C)(C)Oc2ccc(-c3nsc(-c4ccc(OC(C)(C)C(O)c5ccc(OC)c(OC)c5)cc4)n3)cc2)cc1OC` (single isomer, unassigned) [Compound I-43, 1-(3,4-dimethoxyphenyl)-2-[4-[5-[4-[2-(3,4-dimethoxyphenyl)-2-hydroxy-1,1-dimethyl-ethoxy]phenyl]-1,2,4-thiadiazol-3-yl]phenoxy]-2-methyl-propan-1-ol] was tested. Which IC50 ([1]; Homo sapiens, NCI-H460, 1 h) did it give?
Answer: 37 nM

Question: And the “Western Blot (decrease of HIF1-a stabilization, percentage relative to control)” value [2]?
Answer: 32%

Question: What about the “Western Blot (range of decrease of HIF1-a stabilization)” value [2] of the same compound?
Answer: * (* represents a decrease of HIF-a stabilization between 30 to 50%)

Question: For `COc1ccc(C(O)C(C)Oc2ccc(-c3csc(-c4ccc(OC(C)C(O)c5ccc(OC)c(OC)c5)cc4)n3)cc2)cc1OC` (single isomer, unassigned) [Compound I-31, 1-(3,4-dimethoxyphenyl)-2-[4-[2-[4-[2-(3,4-dimethoxyphenyl)-2-hydroxy-1-methyl-ethoxy]phenyl]thiazol-4-yl]phenoxy]propan-1-ol], which IC50 [1] is on record?
Answer: 300 nM

Question: What about the “Western Blot (decrease of HIF1-a stabilization, percentage relative to control)” value [2] of the same compound?
Answer: 64%

Question: What about the “Western Blot (range of decrease of HIF1-a stabilization)” value [2] of the same compound?
Answer: ** (** represents a decrease of HIF-a stabilization between 50 to 70%)

Question: `COc1ccc(C(O)C(C)(C)Oc2ccc(-c3csc(-c4ccc(OC(C)(C)C(O)c5ccc(OC)c(OC)c5)cc4)n3)cc2)cc1OC` (single isomer, unassigned) [Compound I-28, 1-(3,4-dimethoxyphenyl)-2-[4-[2-[4-[2-(3,4-dimethoxyphenyl)-2-hydroxy-1,1-dimethyl-ethoxy]phenyl]thiazol-4-yl]phenoxy]-2-methyl-propan-1-ol] was tested. Which IC50 ([1]; Homo sapiens, NCI-H460, 1 h) did it give?
Answer: 41.8 nM

Question: With `COc1cc(C(O)COc2ccc(-c3coc(-c4ccc(OCC(O)c5cc(OC)c(OC)c(OC)c5)cc4)n3)cc2)cc(OC)c1OC` (centres unmarked) [Compound I-20, 2-[4-[2-[4-[2-hydroxy-2-(3,4,5-trimethoxyphenyl)ethoxy]phenyl]oxazol-4-yl]phenoxy]-1-(3,4,5-trimethoxyphenyl)ethanol] as the compound, how does the IC50 ([1]; Homo sapiens, NCI-H460, 1 h) read?
Answer: 1420 nM
